Experimental data reported in article PMC8198181, “Evaluation of Substituted N-Phenylpiperazine Analogs as D3 vs. D2 Dopamine Receptor Subtype Selective Ligands” (Molecules, 2021).

How the values were obtained:
[1] = target: T1, human 5-HT1A receptor (Homo sapiens, UniProt P08908); assay: 5-HT1A receptor binding ([3H]8-hydroxy-DPAT displacement, CHO-K1 membranes)
T1 construct: expressed in transfected cells; host or cells: CHO-K1
T1 sequence (P08908 1-422): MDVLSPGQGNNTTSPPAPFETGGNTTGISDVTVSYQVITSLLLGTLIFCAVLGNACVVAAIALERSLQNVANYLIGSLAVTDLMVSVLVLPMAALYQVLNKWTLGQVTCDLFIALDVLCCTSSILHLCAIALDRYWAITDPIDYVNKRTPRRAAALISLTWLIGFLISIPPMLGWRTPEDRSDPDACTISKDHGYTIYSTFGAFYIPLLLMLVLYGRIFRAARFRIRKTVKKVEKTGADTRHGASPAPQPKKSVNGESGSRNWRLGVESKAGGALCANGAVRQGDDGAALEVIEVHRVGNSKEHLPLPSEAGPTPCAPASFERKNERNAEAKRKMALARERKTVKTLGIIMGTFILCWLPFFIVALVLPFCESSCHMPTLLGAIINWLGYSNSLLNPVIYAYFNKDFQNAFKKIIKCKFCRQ
Procedure: Because the 5-HT1A receptor is a commonly observed off-site binding site for benzamide N-phenylpiperazine ligands, compounds were simultaneously screened for binding of our compounds at the human 5-HT1A receptor expressed in CHO-K1 cells, using the radioligand [^3H]-8-hydroxy-DPAT (8-OH-DPAT) (Table 2). Based upon the analysis of the displacement assay shown in Table 2, the orthosteric compounds 3c–f appeared to bind with low affinity at human 5-HT1A receptors.
10 μg of membranes from CHO-K1 cells expressing the human 5-HT1A receptor were suspended in 50 mM Tris-HCl, 10 mM MgSO4, 0.5 mM EDTA, and 0.1% (w/v) ascorbic acid, pH 7.4 and test ligands (91 nM for single point radioligand displacement assay and 1 nM to 1 μM for full competition assay) were incubated with 0.25 nM [^3H]8-hydroxy-DPAT (PerkinElmer, Boston, MA, USA) for 60 min at room temperature. The nonspecific binding was determined using 10 μM metergoline (Sigma, St. Louis, MO, USA). After incubation, the bound ligands were filtered using an M-24 Brandel filtration system (Brandel, Gaithersburg, MD, USA), collected on glass fiber papers (Whatman grade 934-AH, GE Healthcare Bio-Sciences, Pittsburgh, PA, USA), and the radioactivity was quantitated using a MicroBeta2 Microplate scintillation counter 2450 (PerkinElmer, Boston, MA, USA).

[2] = target: 5-HT2B receptor (Homo sapiens, UniProt P41595); assay: PDSP off-target binding; conditions: read-out: binding affinity 5-HT2B (PDSP)
Chain of 5-HT2B receptor (P41595 whole entry): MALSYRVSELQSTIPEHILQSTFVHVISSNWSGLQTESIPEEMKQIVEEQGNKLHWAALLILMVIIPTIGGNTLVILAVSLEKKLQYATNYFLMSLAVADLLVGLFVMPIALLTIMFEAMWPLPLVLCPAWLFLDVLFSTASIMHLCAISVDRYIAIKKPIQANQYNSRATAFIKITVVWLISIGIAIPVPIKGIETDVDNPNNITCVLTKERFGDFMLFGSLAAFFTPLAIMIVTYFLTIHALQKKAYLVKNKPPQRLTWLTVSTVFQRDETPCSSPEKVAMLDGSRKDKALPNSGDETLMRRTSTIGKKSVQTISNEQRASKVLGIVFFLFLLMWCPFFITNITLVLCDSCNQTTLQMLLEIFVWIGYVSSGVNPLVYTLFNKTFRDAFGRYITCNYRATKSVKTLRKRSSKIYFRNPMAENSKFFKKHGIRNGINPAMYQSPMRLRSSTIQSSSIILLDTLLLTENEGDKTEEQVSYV
Description: (§1) Further evaluation of the off-target binding of compound 6a was provided by the Psychoactive Drug Screening Program (PDSP) for a range of receptors including serotonin receptor subtypes, α-adrenergic receptor subtypes, β-adrenergic receptor subtypes, histaminergic receptor subtypes, muscarinic receptor subtypes, opioid receptor subtypes and the two sigma receptor subtypes.

[3] = target: 5-HT7A receptor (Homo sapiens, UniProt P34969); assay: PDSP off-target binding; conditions: read-out: binding affinity 5-HT7A (PDSP)
Chain of 5-HT7A receptor (P34969 1-445 isoform P34969-2): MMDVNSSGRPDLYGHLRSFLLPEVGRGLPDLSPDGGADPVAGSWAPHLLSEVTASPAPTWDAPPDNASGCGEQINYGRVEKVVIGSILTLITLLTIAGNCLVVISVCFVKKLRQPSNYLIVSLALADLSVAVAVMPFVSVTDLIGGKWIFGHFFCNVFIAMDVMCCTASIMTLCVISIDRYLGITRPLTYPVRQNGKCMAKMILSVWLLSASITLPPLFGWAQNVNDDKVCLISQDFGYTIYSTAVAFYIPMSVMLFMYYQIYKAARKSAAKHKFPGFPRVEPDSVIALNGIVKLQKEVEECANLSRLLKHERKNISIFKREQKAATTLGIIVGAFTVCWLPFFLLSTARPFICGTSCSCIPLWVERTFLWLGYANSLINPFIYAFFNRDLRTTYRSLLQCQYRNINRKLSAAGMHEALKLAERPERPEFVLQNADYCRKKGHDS
Description: as §1

[4] = target: D2 dopamine receptor (Homo sapiens, UniProt P14416); assay: PDSP off-target binding; conditions: in words
Chain of D2 dopamine receptor (P14416 whole entry): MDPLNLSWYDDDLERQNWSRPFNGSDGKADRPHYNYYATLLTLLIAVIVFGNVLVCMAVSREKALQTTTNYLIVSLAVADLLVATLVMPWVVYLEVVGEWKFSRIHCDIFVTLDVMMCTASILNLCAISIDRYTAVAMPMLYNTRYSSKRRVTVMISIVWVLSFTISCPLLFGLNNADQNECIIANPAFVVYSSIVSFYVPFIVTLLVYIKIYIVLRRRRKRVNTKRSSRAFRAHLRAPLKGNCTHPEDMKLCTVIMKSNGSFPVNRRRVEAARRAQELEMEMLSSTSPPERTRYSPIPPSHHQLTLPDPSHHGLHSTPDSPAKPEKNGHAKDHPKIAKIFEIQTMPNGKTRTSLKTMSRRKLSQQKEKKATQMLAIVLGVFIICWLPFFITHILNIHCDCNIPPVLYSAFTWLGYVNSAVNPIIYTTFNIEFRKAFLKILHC
Description: as §1

[5] = target: T2, D3 dopamine receptor (Homo sapiens, UniProt P35462); assay: PDSP off-target binding; conditions: read-out: binding affinity D3 (PDSP)
T2 sequence (P35462 whole entry): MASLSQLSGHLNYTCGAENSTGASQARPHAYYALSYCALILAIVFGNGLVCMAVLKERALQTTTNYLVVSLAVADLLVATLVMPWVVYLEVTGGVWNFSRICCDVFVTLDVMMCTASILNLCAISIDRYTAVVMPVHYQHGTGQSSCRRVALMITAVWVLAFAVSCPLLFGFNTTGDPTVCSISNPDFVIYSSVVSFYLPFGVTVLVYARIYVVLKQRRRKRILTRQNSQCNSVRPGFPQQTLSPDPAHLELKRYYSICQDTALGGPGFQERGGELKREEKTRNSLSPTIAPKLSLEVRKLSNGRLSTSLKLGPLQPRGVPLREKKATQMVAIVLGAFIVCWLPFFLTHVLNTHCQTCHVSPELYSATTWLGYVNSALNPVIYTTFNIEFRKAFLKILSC
Description: as §1

[6] = target: D4 dopamine receptor (Homo sapiens, UniProt P21917); assay: PDSP off-target binding; conditions: read-out: binding affinity D4 (PDSP)
Description: as §1

[7] = target: D5 dopamine receptor (Homo sapiens, UniProt P21918); assay: PDSP off-target binding; conditions: in words
Chain of D5 dopamine receptor (P21918 whole entry): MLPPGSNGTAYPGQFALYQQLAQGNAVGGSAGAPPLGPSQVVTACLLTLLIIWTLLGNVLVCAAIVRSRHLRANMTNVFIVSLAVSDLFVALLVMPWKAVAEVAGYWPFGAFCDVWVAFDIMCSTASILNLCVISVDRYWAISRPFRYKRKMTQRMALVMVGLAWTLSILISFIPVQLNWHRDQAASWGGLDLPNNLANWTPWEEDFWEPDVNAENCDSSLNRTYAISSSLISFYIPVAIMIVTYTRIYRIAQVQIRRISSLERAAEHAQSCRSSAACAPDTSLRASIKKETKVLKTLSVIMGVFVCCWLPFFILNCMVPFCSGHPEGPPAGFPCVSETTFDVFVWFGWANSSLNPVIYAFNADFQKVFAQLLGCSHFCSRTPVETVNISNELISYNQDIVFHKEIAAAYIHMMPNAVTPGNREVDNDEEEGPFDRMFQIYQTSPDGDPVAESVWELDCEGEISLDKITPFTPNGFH
Description: as §1

[8] = target: dopamine transporter (DAT) (Homo sapiens, UniProt Q01959); assay: PDSP off-target binding; conditions: read-out: binding affinity DAT (PDSP)
Chain of dopamine transporter (DAT) (Q01959 whole entry, species assumed): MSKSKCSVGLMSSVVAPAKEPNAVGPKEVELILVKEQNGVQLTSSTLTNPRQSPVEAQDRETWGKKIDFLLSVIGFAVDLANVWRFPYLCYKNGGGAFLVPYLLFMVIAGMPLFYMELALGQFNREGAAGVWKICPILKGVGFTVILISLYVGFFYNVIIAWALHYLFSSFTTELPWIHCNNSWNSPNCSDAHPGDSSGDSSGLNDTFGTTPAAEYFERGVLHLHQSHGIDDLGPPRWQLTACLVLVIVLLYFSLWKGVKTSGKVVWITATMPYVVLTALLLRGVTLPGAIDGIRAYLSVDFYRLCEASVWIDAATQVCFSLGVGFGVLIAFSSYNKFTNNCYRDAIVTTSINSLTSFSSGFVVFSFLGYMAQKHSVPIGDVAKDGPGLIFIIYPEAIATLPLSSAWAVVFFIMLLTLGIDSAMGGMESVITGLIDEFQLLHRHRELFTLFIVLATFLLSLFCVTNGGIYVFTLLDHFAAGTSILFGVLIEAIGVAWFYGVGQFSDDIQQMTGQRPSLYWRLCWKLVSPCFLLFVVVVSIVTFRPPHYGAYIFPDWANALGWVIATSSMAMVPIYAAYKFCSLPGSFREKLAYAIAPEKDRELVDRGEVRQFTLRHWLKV
Description: as §1

[9] = target: norepinephrine transporter (NET) (Homo sapiens, UniProt P23975); assay: PDSP off-target binding; conditions: read-out: binding affinity NET (PDSP)
Chain of norepinephrine transporter (NET) (P23975 whole entry, species assumed): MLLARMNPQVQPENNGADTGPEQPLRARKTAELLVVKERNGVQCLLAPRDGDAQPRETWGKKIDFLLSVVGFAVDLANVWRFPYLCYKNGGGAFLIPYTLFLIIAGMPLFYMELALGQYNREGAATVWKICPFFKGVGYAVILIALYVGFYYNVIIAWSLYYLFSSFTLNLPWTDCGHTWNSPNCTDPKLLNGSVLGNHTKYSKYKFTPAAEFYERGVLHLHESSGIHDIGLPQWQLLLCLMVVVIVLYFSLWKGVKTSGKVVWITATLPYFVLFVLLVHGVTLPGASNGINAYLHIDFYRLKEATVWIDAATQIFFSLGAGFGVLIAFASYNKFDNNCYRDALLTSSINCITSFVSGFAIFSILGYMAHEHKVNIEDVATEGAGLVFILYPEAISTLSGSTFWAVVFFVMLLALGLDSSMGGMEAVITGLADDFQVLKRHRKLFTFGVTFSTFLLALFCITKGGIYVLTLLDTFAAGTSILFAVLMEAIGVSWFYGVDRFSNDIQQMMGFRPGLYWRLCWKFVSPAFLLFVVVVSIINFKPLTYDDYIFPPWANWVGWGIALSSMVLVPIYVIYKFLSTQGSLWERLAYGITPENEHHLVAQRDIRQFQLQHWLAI
Description: as §1

[10] = target: serotonin transporter (SERT) (Homo sapiens, UniProt P31645); assay: PDSP off-target binding; conditions: read-out: binding affinity SERT (PDSP)
Description: as §1

[11] = target: sigma-2 receptor (Homo sapiens, UniProt Q5BJF2); assay: PDSP off-target binding; conditions: read-out: binding affinity sigma-2 (PDSP)
Chain of sigma-2 receptor (Q5BJF2 whole entry, species assumed): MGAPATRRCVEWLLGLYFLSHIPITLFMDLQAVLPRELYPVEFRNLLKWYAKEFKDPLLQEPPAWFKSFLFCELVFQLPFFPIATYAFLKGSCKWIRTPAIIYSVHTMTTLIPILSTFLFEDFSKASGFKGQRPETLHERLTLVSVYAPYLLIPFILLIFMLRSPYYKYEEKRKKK
Description: as §1

[12] = target: α1d adrenergic receptor (Homo sapiens, UniProt P25100); assay: PDSP off-target binding; conditions: read-out: binding affinity α1d (PDSP)
Chain of α1d adrenergic receptor (P25100 whole entry): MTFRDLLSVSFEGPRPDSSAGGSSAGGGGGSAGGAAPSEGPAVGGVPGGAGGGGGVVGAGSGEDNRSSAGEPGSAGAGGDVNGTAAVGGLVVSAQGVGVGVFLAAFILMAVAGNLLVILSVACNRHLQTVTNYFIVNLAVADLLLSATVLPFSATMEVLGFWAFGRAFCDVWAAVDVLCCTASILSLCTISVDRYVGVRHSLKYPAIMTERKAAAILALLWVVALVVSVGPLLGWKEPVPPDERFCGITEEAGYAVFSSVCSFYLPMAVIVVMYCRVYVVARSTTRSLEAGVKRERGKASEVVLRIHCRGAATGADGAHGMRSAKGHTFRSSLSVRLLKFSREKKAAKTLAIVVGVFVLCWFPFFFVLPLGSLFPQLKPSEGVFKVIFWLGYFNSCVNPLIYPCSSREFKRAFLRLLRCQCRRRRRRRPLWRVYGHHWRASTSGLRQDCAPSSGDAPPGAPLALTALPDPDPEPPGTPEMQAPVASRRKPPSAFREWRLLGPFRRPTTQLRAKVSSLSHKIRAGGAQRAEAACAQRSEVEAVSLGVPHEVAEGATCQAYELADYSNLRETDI
Description: as §1

[13] = target: α2a adrenergic receptor (Homo sapiens, UniProt P08913); assay: PDSP off-target binding; conditions: read-out: binding affinity α2a (PDSP)
Description: as §1

[14] = target: α2c adrenergic receptor (Homo sapiens, UniProt P18825); assay: PDSP off-target binding; conditions: read-out: binding affinity α2c (PDSP)
Chain of α2c adrenergic receptor (P18825 whole entry): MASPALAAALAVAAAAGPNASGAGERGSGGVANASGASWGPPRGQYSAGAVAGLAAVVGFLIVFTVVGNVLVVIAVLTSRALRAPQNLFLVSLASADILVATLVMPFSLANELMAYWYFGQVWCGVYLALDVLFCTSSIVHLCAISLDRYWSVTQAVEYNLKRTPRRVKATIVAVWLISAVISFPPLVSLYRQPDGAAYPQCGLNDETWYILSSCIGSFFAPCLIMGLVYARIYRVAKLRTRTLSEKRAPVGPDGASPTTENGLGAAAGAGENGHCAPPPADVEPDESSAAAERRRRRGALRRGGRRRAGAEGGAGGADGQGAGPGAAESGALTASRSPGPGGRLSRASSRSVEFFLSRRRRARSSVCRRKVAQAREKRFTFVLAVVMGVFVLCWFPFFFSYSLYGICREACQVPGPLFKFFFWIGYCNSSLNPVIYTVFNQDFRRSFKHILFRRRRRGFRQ
Description: as §1

[15] = target: T2, D3 dopamine receptor; assay: Forskolin-dependent adenylyl cyclase inhibition assay (cAMP-Glo, HEK cells); assay type: cell-based; design: expressed in transfected cells; host or cells: HEK293; conditions: human D3, test compound at 10x Ki, normalized to quinpirole 10,000 nM
Procedure: Quinpirole was used as a reference prototypic full agonist and haloperidol was used as a reference prototypic antagonist.
The forskolin-dependent adenylyl cyclase inhibition assay was performed using a cAMP-Glo Assay kit (Promega). For this assay cAMP stimulates protein kinase A (PKA) activity, which leads to a decrease in ATP levels and a decrease in the luciferase-coupled production of light. This is a 96 well plate assay using HEK cells stably transfected to express the human D3 dopamine receptor (10,000 cells/well/0.1 mL complete media). After removing media and rinsing with phosphate buffered saline, cells were incubated with 20 μL of forskolin (6000 nM) and test compound or vehicle. […] After cells, test compound (or vehicle) and forskolin (or vehicle) were incubated for 15 min, cells were lysed using 20 μL lysis buffer (provided with the kit) and mixed for 15 min at room temperature. A cAMP Detection Solution (40 μL) was added to each well, gently mixed for 60 s and incubated at room temperature for 20 min. The Kinase-Glo Solution was added (40 μL) to terminate the PKA reaction. The reaction mixture was gently mixed for 60 s and then incubated at room temperature for 10 min. The remaining ATP was detected via a luciferase reaction. The plates were read using an Enspire Alpha 2390 Multilabel Reader/Luminometer. Haloperidol (200 nM) and quinpirole (10,000 nM) was used as a prototypic reference antagonist and full agonist, respectively.
Figure 3 Comparison of the Efficacy of Phenylthiophene Analogs for Adenylyl Cyclase Inhibition and β-Arrestin Binding at Human D3 Dopamine Receptors. […] Values were normalized to reference full agonist quinpirole (10,000 nM).

Question: What does the source list for `O=C(NCCCCN1CCN(c2ccccc2F)CC1)c1ccc(-c2ccsc2)cc1` [Compound 6a]?
Answer: 5-HT1A affinity lower than D3 affinity ([1]; 5-HT1A Ki vs. D3 Ki): approximately 140 fold; Ki ([1]; full competition curve, [3H]-8-hydroxy-DPAT, at least three experiments, read-out: Ki at 5-HT1A receptor): 199 nM; 5-HT1A receptor affinity/displacement in words ([1]; radioligand displacement assessment at 91 nM): decreased binding affinity; inhibition at 0.091 µM ([1]; single point displacement of [3H]-8-hydroxy-DPAT, 91 nM test compound, CHO-K1, ± S.E.M., n ≥ 3): -3.3 ± 15.1%; Ki [2]: 36.3 nM; Ki [3]: 73.6 nM; binding affinity D2 (PDSP) [4]: low affinity binding; Ki [5]: 0.2 nM; Ki [6]: > 1500 nM; binding affinity D5 (PDSP) [7]: low affinity binding; Ki [8]: > 190 nM; Ki [9]: > 650 nM; Ki [10]: > 750 nM; Ki [11]: 33.1 nM; Ki [12]: 16.6 nM; Ki [13]: 15.2 nM; Ki [14]: 27.1 nM; efficacy in adenylyl cyclase inhibition assay [15]: weak partial agonists
